In patent US20240238423A9, “TETRAHYDROISOQUINOLINE HETEROBIFUNCTIONAL BCL-XL DEGRADERS” (Treeline Biosciences, Inc., priority 2022, published 2024):
Where two headings read alike, the source gives them in different places.

Biological target: T1, Human BCL-XL protein (N-terminal HiBiT tagged BCL-XL in HT1080 cells) (Homo sapiens, UniProt Q07817)
T1 construct: expressed in transfected cells; host or cells: HT-1080 (ATCC CCL-121), stably transduced with lentivirus pLV-UBC-N-HiBiT-BCL-XL-PGK-puro and selected with puromycin
T1 sequence (Q07817 whole entry): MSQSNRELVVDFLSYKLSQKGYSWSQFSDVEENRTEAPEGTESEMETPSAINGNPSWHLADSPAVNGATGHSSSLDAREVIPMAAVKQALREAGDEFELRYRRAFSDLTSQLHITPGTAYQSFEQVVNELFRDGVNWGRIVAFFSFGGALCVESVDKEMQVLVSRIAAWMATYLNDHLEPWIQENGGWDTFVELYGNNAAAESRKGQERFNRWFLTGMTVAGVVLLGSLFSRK
Assay: HiBiT based degradation assay
Assay type: cell-based
Settings: HT1080 cells expressing HiBiT-BCL-XL; for Ymin (24 h) / Ymin (6 h): BCL-XL degradation normalized with DMSO control; for DC50: BCL-XL degradation
How it was run: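 HT1080 cells stably transduced by lentivirus with N-terminally HiBiT-tagged human BCL-XL and kept under 1 μg/mL puromycin selection were seeded at three thousand cells per well in 40 μL RPMI 1640 into 384-well plates pre-spotted with compounds across a concentration range. Luminescence was read on a PHERAstar FSX, normalized to DMSO, and fitted with a four-parameter logistic model.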

| Ymin (24 h) | DC50 (24 h, read-out: EC50 (24 h)) [nM] | Ymin (6 h) | DC50 (6 h, read-out: EC50 (6 h)) [nM] | SMILES |
| --- | --- | --- | --- | --- |
| A (Ymin < 50%) | < 100 | – | – | Cc1c(O[C@H]2CC[C@H](CCCCN3CCN(c4ccc5c(C6CCC(=O)NC6=O)nn(C)c5c4)C[C@@H]3C(F)(F)F)CC2)cccc1-c1ccc(N2CCc3cccc(C(=O)Nc4nc5ccccc5s4)c3C2)nc1C(=O)O (stereo partly drawn) [Compound 346a, 6-(8-(benzo[d]thiazol-2-ylcarbamoyl)-3,4-dihydroisoquinolin-2(1H)-yl)-3-(3-(((1s,4r)-4-(4-((2R)-4-(3-(2,6-dioxopiperidin-3-yl)-1-methyl-1H-indazol-6-yl)-2-(trifluoromethyl)piperazin-1-yl)butyl)cyclohexyl)oxy)-2-methylphenyl)picolinic acid] |
| B (50% ≤ Ymin < 70%) | < 100 | – | – | Cc1c(O[C@H]2CC[C@@H](CCCC3CCN(c4ccc5c(C6CCC(=O)NC6=O)nn(C)c5c4)CC3)CC2)cccc1-c1ccc(N2CCc3cccc(C(=O)Nc4nc5ccccc5s4)c3C2)nc1C(=O)O (stereo partly shown) [Compound 311a, 6-(8-(benzo[d]thiazol-2-ylcarbamoyl)-3,4-dihydroisoquinolin-2(1H)-yl)-3-(3-(((1r,4s)-4-(3-(1-(3-(2,6-dioxopiperidin-3-yl)-1-methyl-1H-indazol-6-yl)piperidin-4-yl)propyl)cyclohexyl)oxy)-2-methylphenyl) picolinic acid] |
| A (Ymin < 50%) | < 100 | – | – | Cc1c(O[C@H]2CC[C@H](CCCN3CC[C@@H](c4cccc5c(C6CCC(=O)NC6=O)nn(C)c45)C3)CC2)cccc1-c1ccc(N2CCc3cccc(C(=O)Nc4nc5ccccc5s4)c3C2)nc1C(=O)O (single isomer, unassigned) [Compound 320b] |
| A (Ymin < 50%) | < 100 | – | – | Cc1c(O[C@H]2CC[C@H](CCCCN3CCN(c4cc5c(cc4F)c(C4CCC(=O)NC4=O)nn5C)CC3)CC2)cccc1-c1ccc(N2CCc3cccc(C(=O)Nc4nc5ccccc5s4)c3C2)nc1C(=O)O (stereo partly shown) [Compound 296a, 6-(8-(benzo[d]thiazol-2-ylcarbamoyl)-3,4-dihydroisoquinolin-2(1H)-yl)-3-(3-(((1s,4r)-4-(4-(4-(3-(2,6-dioxopiperidin-3-yl)-5-fluoro-1-methyl-1H-indazol-6-yl)piperazin-1-yl)butyl)cyclohexyl)oxy)-2-methylphenyl)picolinic acid] |
| A (Ymin < 50%) | < 100 | – | – | Cc1cc2c(C3CCC(=O)NC3=O)nn(C)c2cc1N1CCN(CCC[C@H]2CC[C@H](Oc3cccc(-c4ccc(N5CCc6cccc(C(=O)Nc7nc8ccccc8s7)c6C5)nc4C(=O)O)c3C)CC2)CC1 (stereo partly shown) [Compound 335a, 6-(8-(benzo[d]thiazol-2-ylcarbamoyl)-3,4-dihydroisoquinolin-2(1H)-yl)-3-(3-(((1s,4r)-4-(3-(4-(3-(2,6-dioxopiperidin-3-yl)-1,5-dimethyl-1H-indazol-6-yl)piperazin-1-yl)propyl)cyclohexyl)oxy)-2-methylphenyl)picolinic acid] |
| B (50% ≤ Ymin < 70%) | < 100 | – | – | Cc1c(OCCCC2CCN(CC(=O)Nc3ccc4c(N5CCC(=O)NC5=O)nn(C)c4c3)CC2)cccc1-c1ccc(N2CCc3cccc(C(=O)Nc4nc5ccccc5s4)c3C2)nc1C(=O)O [Compound 317, 6-(8-(benzo[d]thiazol-2-ylcarbamoyl)-3,4-dihydroisoquinolin-2(1H)-yl)-3-(3-(3-(1-(2-((3-(2,4-dioxotetrahydropyrimidin-1(2H)-yl)-1-methyl-1H-indazol-6-yl)amino)-2-oxoethyl)piperidin-4-yl)propoxy)-2-methylphenyl)picolinic acid] |

Continued, molecule first:

| SMILES | Ymin (24 h) | DC50 (24 h, read-out: EC50 (24 h)) [nM] | Ymin (6 h) | DC50 (6 h, read-out: EC50 (6 h)) [nM] |
| --- | --- | --- | --- | --- |
| Cc1c(OCCC2CCN(CCN3CCN(c4cccc5c(C6CCC(=O)NC6=O)nn(C)c45)CC3)CC2)cccc1-c1ccc(N2CCc3cccc(C(=O)Nc4nc5ccccc5s4)c3C2)nc1C(=O)O (stereo not shown) [Compound 233, 6-[8-(1,3-benzothiazol-2-ylcarbamoyl)-3,4-dihydro-1H-isoquinolin-2-yl]-3-[3-[2-[1-[2-[4-[3-(2,6-dioxo-3-piperidyl)-1-methyl-indazol-7-yl]piperazin-1-yl]ethyl]-4-piperidyl]ethoxy]-2-methyl-phenyl]pyridine-2-carboxylic acid] | A (Ymin < 50%) | < 100 | – | – |
| Cc1c(OCCCCC2CCN(CC3CCN(c4ccc5c(C6CCC(=O)NC6=O)nn(C)c5c4)CC3)CC2)cccc1-c1ccc(N2CCc3cccc(C(=O)Nc4nc5ccccc5s4)c3C2)nc1C(=O)O (stereo not shown) [Compound 257, 6-[8-(1,3-benzothiazol-2-ylcarbamoyl)-3,4-dihydro-1H-isoquinolin-2-yl]-3-[3-[4-[1-[[1-[3-(2,6-dioxo-3-piperidyl)-1-methyl-indazol-6-yl]-4-piperidyl]methyl]-4-piperidyl]butoxy]-2-methyl-phenyl]pyridine-2-carboxylic acid] | A (Ymin < 50%) | < 100 | – | – |
| Cc1c(Oc2ccccc2CCC(=O)Nc2ccc(C3CCC(=O)NC3=O)cc2)cccc1-c1ccc(N2CCc3cccc(C(=O)Nc4nc5ccccc5s4)c3C2)nc1C(=O)O (stereo not shown) [Compound 134, 6-(8-(benzo[d]thiazol-2-ylcarbamoyl)-3,4-dihydroisoquinolin-2(1H)-yl)-3-(3-(2-(3-((4-(2,6-dioxopiperidin-3-yl)phenyl)amino)-3-oxopropyl)phenoxy)-2-methylphenyl)picolinic acid] | B (50% ≤ Ymin < 70%) | < 100 | B (50% ≤ Ymin < 70%) | 100 to 1000 |
| Cc1c(OCCO[C@H]2C[C@H]3CC[C@@H](C2)N3CC(=O)Nc2cccc3c(C4CCC(=O)NC4=O)nn(C)c23)cccc1-c1ccc(N2CCc3cccc(C(=O)Nc4nc5ccccc5s4)c3C2)nc1C(=O)O (stereo partly drawn) [Compound 224b, 6-(8-(benzo[d]thiazol-2-ylcarbamoyl)-3,4-dihydroisoquinolin-2(1H)-yl)-3-(3-(2-(((1R,3r,5S)-8-(2-((3-(2,6-dioxopiperidin-3-yl)-1-methyl-1H-indazol-7-yl)amino)-2-oxoethyl)-8-azabicyclo[3.2.1]octan-3-yl)oxy)ethoxy)-2-methylphenyl)picolinic acid] | B (50% ≤ Ymin < 70%) | < 100 | – | – |
| Cc1c(O[C@H]2CC[C@H](CCC(=O)Nc3cccc4c(C5CCC(=O)NC5=O)nn(C)c34)CC2)cccc1-c1ccc(N2CCc3cccc(C(=O)Nc4nc5ccccc5s4)c3C2)nc1C(=O)O (stereo partly shown) [Compound 124a, 6-(8-(benzo[d]thiazol-2-ylcarbamoyl)-3,4-dihydroisoquinolin-2(1H)-yl)-3-(3-(((1r,4r)-4-(3-((3-(2,6-dioxopiperidin-3-yl)-1-methyl-1H-indazol-7-yl)amino)-3-oxopropyl)cyclohexyl)oxy)-2-methylphenyl)picolinic acid] | C (Ymin ≥ 70%) | < 100 | C (Ymin ≥ 70%) | 1000 to 10000 |
| Cc1c(O[C@H]2CC[C@H](CCCN3CCN(c4cccc5c(C6CCC(=O)NC6=O)nn(C)c45)C[C@@H]3C)CC2)cccc1-c1ccc(N2CCc3cccc(C(=O)Nc4nc5ccccc5s4)c3C2)nc1C(=O)O (stereo partly drawn) [Compound 275b, 6-(8-(benzo[d]thiazol-2-ylcarbamoyl)-3,4-dihydroisoquinolin-2(1H)-yl)-3-(3-(((1R,4r)-4-(3-((2S)-4-(3-(2,6-dioxopiperidin-3-yl)-1-methyl-1H-indazol-7-yl)-2-methylpiperazin-1-yl)propyl)cyclohexyl)oxy)-2-methylphenyl)picolinic acid] | C (Ymin ≥ 70%) | < 100 | – | – |
| Cc1c(Oc2ccc(CCCNc3ccc4c(C5CCC(=O)NC5=O)nn(C)c4c3)cc2)cccc1-c1ccc(N2CCc3cccc(C(=O)Nc4nc5ccccc5s4)c3C2)nc1C(=O)O (stereo not shown) [Compound 123, 6-[8-(1,3-benzothiazol-2-ylcarbamoyl)-3,4-dihydro-1H-isoquinolin-2-yl]-3-[3-[4-[3-[[3-(2,6-dioxo-3-piperidyl)-1-methyl-indazol-6-yl]amino]propyl]phenoxy]-2-methyl-phenyl]pyridine-2-carboxylic acid] | – | – | C (Ymin ≥ 70%) | 100 to 1000 |
| Cc1c(OCCC2CCN(CCCC3CCN(c4cccc5c(C6CCC(=O)NC6=O)nn(C)c45)CC3)CC2)cccc1-c1ccc(N2CCc3cccc(C(=O)Nc4nc5ccccc5s4)c3C2)nc1C(=O)O (stereo not shown) [Compound 288, 6-[8-(1,3-benzothiazol-2-ylcarbamoyl)-3,4-dihydro-1H-isoquinolin-2-yl]-3-[3-[2-[1-[3-[1-[3-(2,6-dioxo-3-piperidyl)-1-methyl-indazol-7-yl]-4-piperidyl]propyl]-4-piperidyl]ethoxy]-2-methyl-phenyl]pyridine-2-carboxylic acid] | A (Ymin < 50%) | < 100 | – | – |
| Cc1cc(OCCCC2(C)CCN(CC(=O)Nc3ccc4c(C5CCC(=O)NC5=O)nn(C)c4c3)CC2)ccc1-c1ccc(N2CCc3cccc(C(=O)Nc4nc5ccccc5s4)c3C2)nc1C(=O)O (stereo not shown) [Compound 264, 6-[8-(1,3-benzothiazol-2-ylcarbamoyl)-3,4-dihydro-1H-isoquinolin-2-yl]-3-[4-[3-[1-[2-[[3-(2,6-dioxo-3-piperidyl)-1-methyl-indazol-6-yl]amino]-2-oxo-ethyl]-4-methyl-4-piperidyl]propoxy]-2-methyl-phenyl]pyridine-2-carboxylic acid] | A (Ymin < 50%) | < 100 | – | – |
